Source: the supplement of paper PMC12350171

Columns and labels:
[1] = test system: Com21 synthetic gut community; test: community biomass OD578 after 24 h drug treatment relative to untreated (fraction of untreated control); higher = more community growth; conditions: community: Com21 (Com20 + E. coli ED1a)
Experimental: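 Com21 (Com20 plus E. coli ED1a) was treated with drug for 24 h under anaerobic conditions in mGAM. Community OD578 was then measured and normalised to untreated Com21; mean of 3 biological replicates.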

[2] = test system: Eubacterium rectale; test: IC25 growth inhibition; higher = less potent
Procedure, shortened: (§1)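 Monocultures grown overnight in mGAM were added to pre-reduced plates holding twofold drug dilutions, giving a starting OD578 of 0.01 and 1% DMSO (or water). Growth was followed anaerobically by hourly OD578 readings in a plate reader, with at least three biological replicates. The median growth-curve AUC per concentration was forced to be monotonic. IC25 was the lowest concentration with median AUC below 0.75, reported as a tested interval.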

[3] = test system: Ruminococcus gnavus; test: IC25 growth inhibition; higher = less potent
Procedure, shortened: as §1

[4] = test system: Dorea formicigenerans; test: IC25 growth inhibition; higher = less potent
Procedure, shortened: as §1

[5] = test system: Roseburia intestinalis; test: IC25 growth inhibition; higher = less potent
Procedure, shortened: as §1

[6] = test system: Bacteroides vulgatus; test: IC25 growth inhibition; higher = less potent
Procedure, shortened: as §1

[7] = test system: Fusobacterium nucleatum subsp. Nucleatum; test: IC25 growth inhibition; higher = less potent
Procedure, shortened: as §1

[8] = test system: Collinsella aerofaciens; test: IC25 growth inhibition; higher = less potent
Procedure, shortened: as §1

[9] = test system: Bacteroides uniformis; test: IC25 growth inhibition; higher = less potent
Procedure, shortened: as §1

[10] = test system: Streptococcus salivarius; test: IC25 growth inhibition; higher = less potent
Procedure, shortened: as §1

[11] = test system: Clostridium ramosum; test: IC25 growth inhibition; higher = less potent
Procedure, shortened: as §1

[12] = test system: Salmonella enterica typhimurium; test: IC25 growth inhibition; higher = less potent
Procedure, shortened: as §1

[13] = test system: Yersinia enterocolitica WA-314; test: IC25 growth inhibition; higher = less potent
Procedure, shortened: as §1

[14] = test system: Coprococcus comes; test: IC25 growth inhibition; higher = less potent
Procedure, shortened: as §1

[15] = test system: Yersinia pseudotuberculosis; test: IC25 growth inhibition; higher = less potent
Procedure, shortened: as §1

[16] = test system: Streptococcus parasanguinis; test: IC25 growth inhibition; higher = less potent
Procedure, shortened: as §1

[17] = test system: Bacteroides thetaiotaomicron; test: IC25 growth inhibition; higher = less potent
Procedure, shortened: as §1

[18] = test system: Vibrio cholerae; test: IC25 growth inhibition; higher = less potent
Procedure, shortened: as §1

[19] = test system: Clostridium saccharolyticum; test: IC25 growth inhibition; higher = less potent
Procedure, shortened: as §1

[20] = test system: Clostridium bolteae; test: IC25 growth inhibition; higher = less potent
Procedure, shortened: as §1

[21] = test system: Escherichia coli ED1a; test: IC25 growth inhibition; higher = less potent
Procedure, shortened: as §1

[22] = test system: Clostridium perfringens; test: IC25 growth inhibition; higher = less potent
Procedure, shortened: as §1

[23] = test system: Shigella flexneri; test: IC25 growth inhibition; higher = less potent
Procedure, shortened: as §1

[24] = test system: Parabacteroides merdae; test: IC25 growth inhibition; higher = less potent
Procedure, shortened: as §1

[25] = test system: Bacteroides fragilis NT; test: IC25 growth inhibition; higher = less potent
Procedure, shortened: as §1

[26] = drug pretreatment concentration 10 µM
[27] = drug pretreatment concentration 20 µM
[28] = drug pretreatment concentration 40 µM
[29] = drug pretreatment concentration 80 µM
[30] = drug pretreatment concentration 160 µM
[31] = drug pretreatment concentration 2.5 µM
[32] = drug pretreatment concentration 5 µM
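For IC25 growth inhibition in this document: lowest concentration where monotonic median growth AUC falls below 0.75 of drug-free control.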

Compound | community biomass OD578 [1, 26] | community biomass OD578 [1, 27] | community biomass OD578 [1, 28] | community biomass OD578 [1, 29] | community biomass OD578 [1, 30] | IC25 growth inhibition [2] [µM] | IC25 growth inhibition [3] [µM] | IC25 growth inhibition [4] [µM] | IC25 growth inhibition [5] [µM] | IC25 growth inhibition [6] [µM] | IC25 growth inhibition [7] [µM] | IC25 growth inhibition [8] [µM] | IC25 growth inhibition [9] [µM] | IC25 growth inhibition [10] [µM] | IC25 growth inhibition [11] [µM] | IC25 growth inhibition [12] [µM] | IC25 growth inhibition [13] [µM] | IC25 growth inhibition [14] [µM] | IC25 growth inhibition [15] [µM] | IC25 growth inhibition [16] [µM] | IC25 growth inhibition [17] [µM] | IC25 growth inhibition [18] [µM] | IC25 growth inhibition [19] [µM] | IC25 growth inhibition [20] [µM] | IC25 growth inhibition [21] [µM] | IC25 growth inhibition [22] [µM] | IC25 growth inhibition [23] [µM] | IC25 growth inhibition [24] [µM] | IC25 growth inhibition [25] [µM] | community biomass OD578 [1, 31] | community biomass OD578 [1, 32]
Cc1c(OCC(F)(F)F)ccnc1C[S+]([O-])c1nc2ccccc2[nH]1 (configuration not stated) [Lansoprazole] | 0.935 | 0.962 | 0.952 | 0.945 | 0.926 | > 80 | > 160 | ≤ 160 | > 160 | > 160 | > 160 | ≤ 160 | ≤ 160 | > 160 | > 160 | > 160 | > 160 | > 160 | > 160 | > 160 | > 160 | > 160 | > 160 | > 160 | > 160 | > 160 | > 160 | > 160 | > 160 | – | –
CCOC(=O)N1CCC(=C2c3ccc(Cl)cc3CCc3cccnc32)CC1 [Loratadine] | 1.02 | 1.01 | 0.941 | – | – | > 160 | > 80 | > 160 | > 160 | > 160 | > 160 | > 160 | > 160 | > 160 | ≤ 80 | > 40 | > 80 | > 40 | > 40 | > 160 | > 160 | > 160 | > 160 | > 160 | > 40 | > 160 | > 160 | ≤ 40 | > 160 | 1 | 1.01
CN1CCN(C2=Nc3ccccc3Oc3ccc(Cl)cc32)CC1 [Loxapine] | 0.993 | 0.996 | 0.991 | 0.987 | 0.951 | ≤ 40 | ≤ 160 | ≤ 160 | ≤ 160 | ≤ 10 | ≤ 160 | > 160 | ≤ 160 | ≤ 160 | > 160 | > 160 | > 160 | > 40 | > 160 | > 160 | ≤ 40 | ≤ 80 | > 160 | > 160 | > 160 | ≤ 160 | > 160 | ≤ 10 | ≤ 80 | – | –
CN(C)C(=N)NC(=N)N [Metformin] | 1.02 | 1.01 | 1.01 | 1.02 | 1.03 | > 160 | > 160 | > 160 | > 160 | > 160 | > 160 | > 160 | > 160 | > 160 | > 160 | > 160 | > 160 | > 160 | > 160 | > 160 | > 160 | > 160 | > 160 | > 160 | > 160 | > 160 | > 160 | > 160 | > 160 | – | –
CN(Cc1cnc2nc(N)nc(N)c2n1)c1ccc(C(=O)N[C@@H](CCC(=O)O)C(=O)O)cc1 [Methotrexate] | 0.934 | 0.95 | 0.802 | – | – | ≤ 80 | ≤ 10 | ≤ 40 | > 80 | ≤ 20 | ≤ 20 | ≤ 80 | ≤ 10 | ≤ 5 | < 1.25 | > 80 | > 80 | ≤ 80 | > 80 | < 1.25 | > 80 | ≤ 40 | > 80 | ≤ 10 | > 40 | ≤ 20 | > 80 | > 80 | ≤ 40 | 0.93 | 0.91
Clc1ccc(COC(Cn2ccnc2)c2ccc(Cl)cc2Cl)c(Cl)c1 (configuration not stated) [Miconazole] | 1.02 | 0.969 | 0.893 | 0.702 | 0.547 | ≤ 2.5 | ≤ 10 | ≤ 5 | ≤ 5 | ≤ 160 | > 40 | ≤ 10 | > 160 | > 80 | ≤ 10 | > 160 | ≤ 160 | ≤ 5 | > 40 | > 160 | > 160 | > 40 | ≤ 40 | ≤ 80 | > 80 | ≤ 40 | > 40 | ≤ 80 | > 160 | – | –
O=C(Nc1ccc([N+](=O)[O-])cc1Cl)c1cc(Cl)ccc1O [Niclosamide] | 0.912 | 0.901 | 0.897 | 0.823 | 0.811 | ≤ 5 | ≤ 10 | ≤ 20 | ≤ 20 | < 1.25 | ≤ 80 | ≤ 5 | < 1.25 | < 1.25 | ≤ 2.5 | > 160 | > 160 | ≤ 20 | > 20 | < 1.25 | < 1.25 | < 1.25 | ≤ 20 | > 80 | > 80 | ≤ 2.5 | > 40 | < 1.25 | < 1.25 | – | –
COc1ccc2[nH]c([S+]([O-])Cc3ncc(C)c(OC)c3C)nc2c1 (configuration not stated) [Omeprazole] | 0.981 | 0.997 | 1.01 | 0.979 | 0.95 | > 160 | > 160 | > 160 | > 160 | > 160 | > 160 | > 160 | > 160 | > 160 | > 160 | > 160 | > 160 | > 160 | > 160 | > 160 | > 160 | > 160 | > 160 | > 160 | > 160 | > 160 | > 160 | > 160 | > 160 | – | –
